Assays:
mouse = conditions: second phase (15-30 minutes); cited from earlier work
female rats = conditions: doses of 5 and 10 mg/kg; cited from earlier work
rats = test: Hot plate test of analgesia; type: in vivo, rat
Text: The hot plate test assesses antinociception in rats and mice (see, e.g., Basile, A. et al., “Characterization of the Antinociceptive Actions of Bicifadine in Models of Acute, Persistent, and Chronic Pain,” The Journal of Pharmacology and Experimental Therapeutics, 2007, 321 (3), 1208-1225).

[1] = system: patients with major depressive disorder; conditions: cited from earlier work
5-HT2c receptor = biological target: T1, 5-HT2c receptor (Homo sapiens, UniProt P28335); test: Functional activity at the 5-HT2c receptor; type: biochemical
T1 sequence (P28335 33-458): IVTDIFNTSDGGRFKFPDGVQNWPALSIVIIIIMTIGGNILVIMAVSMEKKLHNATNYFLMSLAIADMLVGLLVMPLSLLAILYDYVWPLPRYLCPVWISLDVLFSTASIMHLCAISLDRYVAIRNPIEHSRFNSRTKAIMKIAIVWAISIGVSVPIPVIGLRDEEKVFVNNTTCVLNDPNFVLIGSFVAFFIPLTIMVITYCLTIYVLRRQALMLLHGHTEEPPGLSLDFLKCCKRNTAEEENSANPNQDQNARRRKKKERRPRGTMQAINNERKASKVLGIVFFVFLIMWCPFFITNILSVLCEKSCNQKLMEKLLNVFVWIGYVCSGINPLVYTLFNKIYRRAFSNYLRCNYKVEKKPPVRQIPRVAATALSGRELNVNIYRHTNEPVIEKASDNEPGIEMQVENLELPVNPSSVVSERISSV
Text: It has been proposed that serotonin exerts control of dopamine release in the ventral tegmental area via the 5-HT2c receptor. […] Opioid analgesic effects are manifested via the periaqueductal gray whereas reduction in self-administration results from a reduction in dopamine neurotransmission via 5-HT2c partial agonism in the ventral tegmental area.

Row | SMILES | effectiveness compared with morphine in formalin paw lick test (mouse) | food motivated responding (female rats) | antinociception in hot plate test, given alone (rats; amitifadine alone) | effect on the opioid's antinociception in hot plate test, in combination (rats; amitifadine in combination with an opioid) | antidepressant activity [1] | activity at the 5-HT2c receptor (5-HT2c receptor)
1 | Cl.Clc1ccc([C@]23CNC[C@H]2C3)cc1Cl [(1R,5S)-1-(3,4-dichlorophenyl)-3-azabicyclo[3.1.0]hexane hydrochloride] | as effective as morphine | – | – | – | – | –
2 | Clc1ccc([C@]23CNC[C@H]2C3)cc1Cl [amitifadine, (1R,5S)-1-(3,4-dichlorophenyl)-3-azabicyclo[3.1.0]hexane] | – | does not significantly affect | antinociceptive | does not attenuate the opioid's antinociception, instead extending the opioid's antinociception | significant antidepressant activity | partial agonist
